Data reported in patent publication US12495798B2, “Nicotinamide compound and herbicidal composition comprising compound” (KOREA RESEARCH INSTITUTE OF CHEMICAL TECHNOLOGY, priority 2019, dated 2025).

Assays:
Type in all cases: in vivo
fall panicum [1] = assay: Herbicidal activity test against upland field weeds (foliar treatment test); conditions: 50 g ai/ha, scale 0-100; for pest or weed control at 50 g/ha: Panicum dichotomiflorum
Procedure, shortened: (§1)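 Greenhouse-grown plants (30±5 °C, 14/10 h light/dark) foliar hand-sprayed with compound in 50% acetone, 0.1% Tween-20 at 50 or 75 g a.i./ha. Control visually scored 0 (none) to 100 (complete) versus untreated after 14 days, or 21 days if needed.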

black nightshade = assay: as above; parameters: key to Foliar treatment herbicidal activity, black nightshade: 0 (no control); 100 (complete control); conditions: 50 g ai/ha, scale 0-100
Procedure, shortened: as §1

rice = assay: Phytotoxicity test for upland field crops (foliar treatment test); parameters: key: 0 (no harm); 9 (complete withered)
Procedure, shortened: (§2)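 Crops grown in greenhouse pots (30±5 °C, 14/10 h light) were foliar-sprayed with compound at 19–300 g a.i./ha in 33% acetone/0.1% Tween-20. Phytotoxicity scored 0 (no harm) to 9 (complete withering) versus untreated control at 7 and 14 days, 21 if needed.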

soybean = assay: as above; parameters: key: 0 (no harm); 9 (complete withered)
Procedure, shortened: as §2

cotton = assay: as above; parameters: key: 0 (no harm); 9 (complete withered)
Procedure, shortened: as §2

corn = assay: as above; parameters: key: 0 (no harm); 9 (complete withered)
Procedure, shortened: as §2

bindweed = assay: Herbicidal activity test against upland field weeds (soil treatment test); parameters: key to Soil treatment herbicidal activity, Bindweed: 0 (no control); 100 (complete control); conditions: 50 g ai/ha, scale 0 (no control) to 100 (complete control)
Procedure, shortened: (§3)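 Pre-emergence soil surface spray, day after sowing, into sandy loam pots with fertilizer; compounds at 50 or 75 g a.i./ha in 50% acetone, 0.1% Tween-20. Greenhouse at 30±5 °C, 14/10 h light/dark; visual control rated 0–100 against untreated after 14 days (21 if needed).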

barnyard grass = assay: Herbicidal activity test against upland field weeds (foliar treatment test); parameters: key to Foliar treatment herbicidal activity, barnyard grass: 0 (no control); 100 (complete control); conditions: 50 g ai/ha, scale 0-100; for pest or weed control at 50 g/ha: Echinochloa crus-galli
Procedure, shortened: as §1

crabgrass [2] = assay: as above; conditions: 50 g ai/ha, scale 0-100; for pest or weed control at 50 g/ha: Digitaria sanguinalis
Procedure, shortened: as §1

sorghum = assay: Herbicidal activity test against upland field weeds (soil treatment test); parameters: key to Soil treatment herbicidal activity, Sorghum: 0 (no control); 100 (complete control); conditions: 50 g ai/ha, scale 0 (no control) to 100 (complete control)
Procedure, shortened: as §3

crabgrass [3] = assay: as above; parameters: key to Soil treatment herbicidal activity, Crabgrass: 0 (no control); 100 (complete control); conditions: 50 g ai/ha, scale 0 (no control) to 100 (complete control)
Procedure, shortened: as §3

quack grass = assay: as above; parameters: key to Soil treatment herbicidal activity, quack grass: 0 (no control); 100 (complete control); conditions: 50 g ai/ha, scale 0 (no control) to 100 (complete control)
Procedure, shortened: as §3

indian jointvetch = assay: as above; parameters: key to Soil treatment herbicidal activity, Indian jointvetch: 0 (no control); 100 (complete control); conditions: 50 g ai/ha, scale 0 (no control) to 100 (complete control)
Procedure, shortened: as §3

fall panicum [4] = assay: as above; parameters: key to Soil treatment herbicidal activity, Fall panicum: 0 (no control); 100 (complete control); conditions: 50 g ai/ha, scale 0 (no control) to 100 (complete control)
Procedure, shortened: as §3

[5] = 50 g ai/ha, Rice (7 days after treatment)
[6] = 50 g ai/ha, Rice (14 days after treatment)
[7] = 100 g ai/ha, Rice (7 days after treatment)
[8] = 100 g ai/ha, Rice (14 days after treatment)
[9] = 50 g ai/ha, Soybean (7 days after treatment)
[10] = 50 g ai/ha, Soybean (14 days after treatment)
[11] = 100 g ai/ha, Soybean (7 days after treatment)
[12] = 100 g ai/ha, Soybean (14 days after treatment)
[13] = 50 g ai/ha, Cotton (7 days after treatment)
[14] = 50 g ai/ha, Cotton (14 days after treatment)
[15] = 100 g ai/ha, Cotton (7 days after treatment)
[16] = 100 g ai/ha, Cotton (14 days after treatment)
[17] = 50 g ai/ha, Corn (7 days after treatment)
[18] = 50 g ai/ha, Corn (14 days after treatment)
[19] = 100 g ai/ha, Corn (7 days after treatment)
[20] = 100 g ai/ha, Corn (14 days after treatment)

Compound: COC(=O)OC(C)N(C(=O)c1ccc(C(F)(F)F)nc1COCc1nnn(C)n1)c1nnnn1C (centres unmarked) [Compound No. 4-4, methyl(1-(N-(1-methyl-1H-tetrazol-5-yl)-2-(((2-methyl-2H-tetrazol-5-yl)methoxy)methyl)-6-(trifluoromethyl)nicotinamido)ethyl)carbonate]
- Foliar treatment herbicidal activity, Fall panicum (fall panicum [1]): 98
- Foliar treatment herbicidal activity, black nightshade (black nightshade): 100
- Foliar treatment phytotoxicity, Rice (rice; [5]): 4
- Foliar treatment phytotoxicity, Rice (rice; [6]): 4
- Foliar treatment phytotoxicity, Rice (rice; [7]): 4
- Foliar treatment phytotoxicity, Rice (rice; [8]): 4
- Foliar treatment phytotoxicity, Soybean (soybean; [9]): 0
- Foliar treatment phytotoxicity, Soybean (soybean; [10]): 0
- Foliar treatment phytotoxicity, Soybean (soybean; [11]): 0
- Foliar treatment phytotoxicity, Soybean (soybean; [12]): 0
- Foliar treatment phytotoxicity, Cotton (cotton; [13]): 0
- Foliar treatment phytotoxicity, Cotton (cotton; [14]): 0
- Foliar treatment phytotoxicity, Cotton (cotton; [15]): 0
- Foliar treatment phytotoxicity, Cotton (cotton; [16]): 0
- Foliar treatment phytotoxicity, Corn (corn; [17]): 0
- Foliar treatment phytotoxicity, Corn (corn; [18]): 0
- Foliar treatment phytotoxicity, Corn (corn; [19]): 0
- Foliar treatment phytotoxicity, Corn (corn; [20]): 0
- Soil treatment herbicidal activity, Bindweed (bindweed): 0
- Foliar treatment herbicidal activity, barnyard grass (barnyard grass): 100
- Foliar treatment herbicidal activity, Crabgrass (crabgrass [2]): 98
- Soil treatment herbicidal activity, Sorghum (sorghum): 0
- Soil treatment herbicidal activity, Crabgrass (crabgrass [3]): 0
- Soil treatment herbicidal activity, quack grass (quack grass): 0

Compound: COc1nc(COCc2nc(C(F)(F)F)ccc2C(=O)Nc2nnnn2C)nn1C [Compound No. 2-129, 2-(((5-methoxy-1-methyl-1H-1,2,4-triazol-3-yl)methoxy)methyl)-N-(1-methyl-1H-tetrazol-5-yl)-6-(trifluoromethyl)nicotinamide]
- pest or weed control at 50 g/ha (fall panicum [1]): 50%
- Soil treatment herbicidal activity, Indian jointvetch (indian jointvetch): 0
- Foliar treatment herbicidal activity, black nightshade (black nightshade): 100
- Foliar treatment phytotoxicity, Corn (corn; [17]): 0
- Foliar treatment phytotoxicity, Corn (corn; [18]): 0
- Foliar treatment phytotoxicity, Corn (corn; [19]): 0
- Foliar treatment phytotoxicity, Corn (corn; [20]): 0
- pest or weed control at 50 g/ha (barnyard grass): 90%
- pest or weed control at 50 g/ha (crabgrass [2]): 70%
- Soil treatment herbicidal activity, Fall panicum (fall panicum [4]): 0
- Soil treatment herbicidal activity, Sorghum (sorghum): 0
- Soil treatment herbicidal activity, Crabgrass (crabgrass [3]): 0
- Soil treatment herbicidal activity, quack grass (quack grass): 0

Compound: Cn1cnc(COCc2nc(C(F)F)ccc2C(=O)Nc2nnnn2C)n1 [Compound No. 2-85]
- Foliar treatment herbicidal activity, Fall panicum (fall panicum [1]): 84
- Soil treatment herbicidal activity, Indian jointvetch (indian jointvetch): 55
- Foliar treatment herbicidal activity, black nightshade (black nightshade): 100
- Foliar treatment phytotoxicity, Rice (rice; [5]): 7
- Foliar treatment phytotoxicity, Rice (rice; [6]): 7
- Foliar treatment phytotoxicity, Rice (rice; [7]): 8
- Foliar treatment phytotoxicity, Rice (rice; [8]): 1
- Foliar treatment phytotoxicity, Soybean (soybean; [9]): 4
- Foliar treatment phytotoxicity, Soybean (soybean; [10]): 6
- Foliar treatment phytotoxicity, Soybean (soybean; [11]): 6
- Foliar treatment phytotoxicity, Soybean (soybean; [12]): 7
- Foliar treatment phytotoxicity, Cotton (cotton; [13]): 7
- Foliar treatment phytotoxicity, Cotton (cotton; [14]): 7
- Foliar treatment phytotoxicity, Cotton (cotton; [15]): 8
- Foliar treatment phytotoxicity, Cotton (cotton; [16]): 9
- Foliar treatment phytotoxicity, Corn (corn; [17]): 0
- Foliar treatment phytotoxicity, Corn (corn; [18]): 0
- Foliar treatment phytotoxicity, Corn (corn; [19]): 0
- Foliar treatment phytotoxicity, Corn (corn; [20]): 0
- Soil treatment herbicidal activity, Bindweed (bindweed): 35
- Foliar treatment herbicidal activity, barnyard grass (barnyard grass): 99
- Foliar treatment herbicidal activity, Crabgrass (crabgrass [2]): 60
- Soil treatment herbicidal activity, Fall panicum (fall panicum [4]): 20
- Soil treatment herbicidal activity, Sorghum (sorghum): 0
- Soil treatment herbicidal activity, Crabgrass (crabgrass [3]): 0

Compound: Cn1nnnc1NC(=O)c1ccc(C(F)(F)F)nc1OCc1nnnn1C(F)F [Compound No. 1-26, 2-((1-(difluoromethyl)-1H-tetrazol-5-yl)methoxy)-N-(1-methyl-1H-tetrazol-5-yl)-6-(trifluoromethyl)nicotinamide]
- pest or weed control at 50 g/ha (fall panicum [1]): 98%
- pest or weed control at 50 g/ha (indian jointvetch): 70%
- Foliar treatment herbicidal activity, black nightshade (black nightshade): 100
- Foliar treatment phytotoxicity, Rice (rice; [5]): 3
- Foliar treatment phytotoxicity, Rice (rice; [6]): 6
- Foliar treatment phytotoxicity, Rice (rice; [7]): 4
- Foliar treatment phytotoxicity, Rice (rice; [8]): 7
- Foliar treatment phytotoxicity, Soybean (soybean; [9]): 5
- Foliar treatment phytotoxicity, Soybean (soybean; [10]): 5
- Foliar treatment phytotoxicity, Soybean (soybean; [11]): 5
- Foliar treatment phytotoxicity, Soybean (soybean; [12]): 5
- Foliar treatment phytotoxicity, Cotton (cotton; [13]): 2
- Foliar treatment phytotoxicity, Cotton (cotton; [14]): 6
- Foliar treatment phytotoxicity, Cotton (cotton; [15]): 4
- Foliar treatment phytotoxicity, Cotton (cotton; [16]): 9
- Foliar treatment phytotoxicity, Corn (corn; [17]): 1
- Foliar treatment phytotoxicity, Corn (corn; [18]): 0
- Foliar treatment phytotoxicity, Corn (corn; [19]): 2
- Foliar treatment phytotoxicity, Corn (corn; [20]): 2
- Soil treatment herbicidal activity, Bindweed (bindweed): 0
- pest or weed control at 50 g/ha (barnyard grass): 95%
- pest or weed control at 50 g/ha (crabgrass [2]): 98%
- pest or weed control at 50 g/ha (fall panicum [4]; Panicum dichotomiflorum): 60%
- plant injury at 50 g/ha (sorghum; Sorghum): 30%
- Soil treatment herbicidal activity, quack grass (quack grass): 0

Compound: Cn1nc(COCc2nc(C(F)(F)F)ccc2C(=O)Nc2nnnn2C)nc1Cl [Compound No. 2-135, 2-(((5-chloro-1-methyl-1H-1,2,4-triazol-3-yl)methoxy)methyl)-N-(1-methyl-1H-tetrazol-5-yl)-6-(trifluoromethyl)nicotinamide]
- pest or weed control at 50 g/ha (fall panicum [1]): 50%
- Soil treatment herbicidal activity, Indian jointvetch (indian jointvetch): 0
- pest or weed control at 50 g/ha (black nightshade; Solanum nigrum): 98%
- Foliar treatment phytotoxicity, Rice (rice; [5]): 3
- Foliar treatment phytotoxicity, Rice (rice; [6]): 6
- Foliar treatment phytotoxicity, Rice (rice; [7]): 4
- Foliar treatment phytotoxicity, Rice (rice; [8]): 6
- Foliar treatment phytotoxicity, Soybean (soybean; [9]): 4
- Foliar treatment phytotoxicity, Soybean (soybean; [10]): 6
- Foliar treatment phytotoxicity, Soybean (soybean; [11]): 4
- Foliar treatment phytotoxicity, Soybean (soybean; [12]): 7
- Foliar treatment phytotoxicity, Cotton (cotton; [13]): 3
- Foliar treatment phytotoxicity, Cotton (cotton; [14]): 7
- Foliar treatment phytotoxicity, Cotton (cotton; [15]): 3
- Foliar treatment phytotoxicity, Cotton (cotton; [16]): 7
- Foliar treatment phytotoxicity, Corn (corn; [17]): 0
- Foliar treatment phytotoxicity, Corn (corn; [18]): 0
- Foliar treatment phytotoxicity, Corn (corn; [19]): 0
- Foliar treatment phytotoxicity, Corn (corn; [20]): 0
- pest or weed control at 50 g/ha (barnyard grass): 98%
- pest or weed control at 50 g/ha (crabgrass [2]): 70%
- Soil treatment herbicidal activity, Fall panicum (fall panicum [4]): 0
- Soil treatment herbicidal activity, Sorghum (sorghum): 0
- Soil treatment herbicidal activity, Crabgrass (crabgrass [3]): 0
- Soil treatment herbicidal activity, quack grass (quack grass): 0

Compound: Cn1nnnc1COc1nc(C(F)(F)F)ccc1C(=S)Nc1nnnn1C [Compound No. 1-43, N-(1-methyl-1H-tetrazol-5-yl)-2-((1-methyl-1H-tetrazol-5-yl)methoxy)-6-(trifluoromethyl)pyridin-3-carbothioamide]
- pest or weed control at 50 g/ha (fall panicum [1]): 95%
- Soil treatment herbicidal activity, Indian jointvetch (indian jointvetch): 0
- Foliar treatment herbicidal activity, black nightshade (black nightshade): 100
- Soil treatment herbicidal activity, Bindweed (bindweed): 0
- pest or weed control at 50 g/ha (barnyard grass): 95%
- pest or weed control at 50 g/ha (crabgrass [2]): 95%
- Soil treatment herbicidal activity, Fall panicum (fall panicum [4]): 0
- Soil treatment herbicidal activity, Sorghum (sorghum): 0
- pest or weed control at 50 g/ha (crabgrass [3]; Digitaria sanguinalis): 20%
- Soil treatment herbicidal activity, quack grass (quack grass): 0
